Experimental data published in patent EP4741392A1, “1H-PYRAZOLO[4,3-C]PYRIDINE COMPOUND, AND COMPOSITION THEREOF AND USE THEREOF” (Shenzhen TargetRx Co., Ltd., priority 2023, dated 2025).
Read-outs that look alike come from different tables or passages of the source.

Tests used:
Type in all cases: cell-based
Ramos cells with BTK WT = test: Phosphor-BTK(Y223) assay, suspended cells; conditions: phosphorylated BTK Y223, Ramos cells with BTK WT
How it was run: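 Ramos BTK WT cells (2.5 k/well) were treated with compound dilutions for 2 h at 37 °C, then 5 mM Na3VO4 for 3 h. Lysates were read by HTRF p-BTK(Y223) cryptate/d2 antibodies overnight at RT (665/620 ratio). IC50 came from a four-parameter fit of % inhibition versus blank and positive-control wells.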

NIH/3T3 BTK C481S cells = test: Phosphor-BTK(Y223) assay, adherent cells; conditions: read-out: NIH/3T3 BTK-C481S pBTK
How it was run: (§1)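 NIH/3T3 cells expressing WT or C481S BTK were pretreated with compound for 0.5 h at 37 °C, then stimulated with 1 mM Na3VO4 (final) for 2 h. Lysates were assayed by HTRF for p-BTK Y223 using the 665/620 nm ratio. IC50 was obtained by nonlinear fit of % inhibition versus 0.5% DMSO control.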

NIH/3T3 BTK WT cells = test: Phosphor-BTK(Y223) assay, adherent cells; conditions: read-out: NIH/3T3 BTK-WT pBTK
How it was run: as §1

[1] = Mus musculus, NIH3T3, phosphorylated BTK Y223, NIH/3T3 BTK C481S cells
[2] = Mus musculus, NIH3T3, phosphorylated BTK Y223, NIH/3T3 BTK WT cells

IC50 (Ramos cells with BTK WT; Homo sapiens, Ramos)	IC50 (Ramos cells with BTK WT)	Molecule	IC50 (NIH/3T3 BTK C481S cells; [1])	IC50 (NIH/3T3 BTK WT cells; [2])	IC50 (NIH/3T3 BTK C481S cells; phosphorylated BTK Y223, NIH/3T3 BTK C481S cells)	IC50 (NIH/3T3 BTK WT cells; phosphorylated BTK Y223, NIH/3T3 BTK WT cells)
≤ 5 nM		COc1ccc(F)cc1C(=O)NCc1ccc(-c2nc(C3CCOCC3)cc3[nH]nc(N)c23)cc1 [Example 115, N-(4-(3-amino-6-(tetrahydro-2H-pyran-4-yl)-1H-pyrazolo[4,3-c]pyridin-4-yl)benzyl)-5-fluoro-2-methoxybenzamide]	5 to 10 nM	≤ 5 nM		
≤ 5 nM		COc1ccc(F)cc1C(=O)NCc1ccc(-c2nc([C@H]3CC[C@H](CO)CC3)cc3[nH]nc(N)c23)cc1 [Example 117, N-(4-(3-amino-6-((1r,4r)-4-(hydroxymethyl)cyclohexyl)-1H-pyrazolo[4,3-c]pyridin-4-yl)benzyl)-5-fluoro-2-methoxybenzamide]	10 to 50 nM	10 to 50 nM		
	≤ 5 nM	N-(4-(3-amino-7-(1-(difluoromethyl)-1H-pyrazol-3-yl)-1H-pyrazolo[4,3-c]pyridin-4-yl)benzyl)-5-fluoro-2-methoxybenzamide [Example 29]			5 to 10 nM	≤ 5 nM
